From ChEMBL document CHEMBL4825708 (J Med Chem, 2021)
≈ marks a conversion by molar mass, not a printed value.

Experiments:
[1] = test system: MCF7; assay: cells; conditions: Homo sapiens, MCF7, 72 h
Description: Antiproliferative activity against human MCF-7 cells incubated for 72 hrs by Cell-titer Glo assay

[2] = in vitro; conditions: human, hepatocytes
[3] = Distribution coefficient, logD of the compound at pH 7.4; conditions: octanol/water
[4] = Kinetic solubility of compound at pH 7.4; conditions: buffer
[5] = in vitro; conditions: rat, hepatocytes
[6] = in vitro; conditions: rat, microsomes
[7] = in vitro; conditions: human, microsomes
[8] = target: T1, Estrogen receptor (Homo sapiens, UniProt P03372); conditions: mcf7
T1 sequence (P03372 whole entry): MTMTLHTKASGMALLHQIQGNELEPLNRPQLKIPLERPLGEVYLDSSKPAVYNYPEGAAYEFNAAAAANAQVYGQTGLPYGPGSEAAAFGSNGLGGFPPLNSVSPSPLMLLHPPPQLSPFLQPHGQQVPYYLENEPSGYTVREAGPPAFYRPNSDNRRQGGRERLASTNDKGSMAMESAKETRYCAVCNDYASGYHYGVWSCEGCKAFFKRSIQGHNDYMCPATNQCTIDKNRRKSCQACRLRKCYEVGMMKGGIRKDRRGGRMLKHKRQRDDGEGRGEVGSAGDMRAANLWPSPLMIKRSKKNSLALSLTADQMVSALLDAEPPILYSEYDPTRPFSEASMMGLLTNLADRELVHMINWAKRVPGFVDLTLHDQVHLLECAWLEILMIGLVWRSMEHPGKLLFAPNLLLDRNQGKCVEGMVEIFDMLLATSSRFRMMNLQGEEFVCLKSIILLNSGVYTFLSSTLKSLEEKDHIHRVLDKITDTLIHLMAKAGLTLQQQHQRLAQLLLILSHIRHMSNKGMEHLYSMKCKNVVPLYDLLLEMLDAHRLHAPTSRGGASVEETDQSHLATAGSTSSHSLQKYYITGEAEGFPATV
Description: Induction of estrogen receptor degradation in human MCF7 cells incubated for 4 hrs by Alexafluor -488 conjugate anti-mouse IgG staining based fluorescence method

[9] = target: T1, Estrogen receptor
Description: Antagonist activity at estrogen receptor in human T47D cells incubated for 18 hrs by ultra high sensitivity luminescence reporter gene assay

[10] = Apparent permeability in MDCK cells across apical to basolateral side at 10 uM incubated for 3 hrs by LC-MS/MS analysis; conditions: dog
[11] = Clearance in Sprague-Dawley rat at 1 mg/kg, iv or po measured after 0.033 to 24 hrs by LC/MS/MS analysis; conditions: in vivo
[12] = in vivo; conditions: Sprague-Dawley, rat, po, 5 mg/kg
[13] = in vivo; conditions: Sprague-Dawley, rat, po, 1 mg/kg
[14] = target: T2, Estrogen receptor (Homo sapiens) (UniProt P03372); conditions: MCF7, dose 0.0002-100 nM, time 4.0 hrs
T2 sequence (whole entry): T1 sequence (P03372 whole entry)

[15] = in vivo; conditions: Sprague-Dawley, rat, iv, 1 mg/kg

Row | EC50 [1] | CLint scaled at 1 h [2] | logD [3] | solubility kinetic [4] | CLint scaled at 1 h [5] | CLint scaled at 1 h, 1 µM [6] | CLint scaled at 1 h, 1 µM [7] | DC50 [8] | IC50 [9] | Papp A→B at 3 h, 10 µM [10] | clearance [11] | bioavailability [12] | bioavailability [13] | Emax [14] | clearance [15] | SMILES
1 | > 200 nM |  |  | 114 µM (≈ 55.6 µg/mL) |  | 23 mL/min/kg | 6 mL/min/kg | > 1000 nM | > 1000 nM |  |  |  |  |  |  | C[C@@H]1Cc2c([nH]c3ccccc23)[C@@H](c2ccc(NC3CN(CCCF)C3)nc2)N1CC(F)(F)CO
2 | 17 nM | 15 mL/min/kg | 3.8 | 19 µM (≈ 8.49 µg/mL) | 6 mL/min/kg |  |  |  |  | 2.3 ×10⁻⁶ cm/s | 40 mL/min/kg | 30% |  |  |  | CC/C(=C(/c1ccc(/C=C/C(=O)O)cc1)c1ccc2[nH]ncc2c1)c1ccc(F)cc1Cl [BRILANESTRANT]
3 | 0.9 nM |  |  |  |  |  |  |  |  |  |  |  |  |  |  | C[C@@H]1Cc2c([nH]c3ccccc23)[C@@H](c2c(F)cc(OCCNCCCF)cc2F)N1CC(F)(F)CO
4 | 1 nM | 6 mL/min/kg | 4 | 10 µM (≈ 5.04 µg/mL) | 29 mL/min/kg | 29 mL/min/kg | 10 mL/min/kg |  |  |  | 34 mL/min/kg |  | 31% |  |  | C[C@@H]1Cc2c([nH]c3ccccc23)[C@@H](c2c(F)cc(OCCN3CC(CF)C3)cc2F)N1CC(C)(C)F
5 | 0.3 nM |  |  | 35 µM (≈ 18.8 µg/mL) |  | 35 mL/min/kg | 15 mL/min/kg | 0.12 nM |  |  |  |  |  |  |  | C[C@@H]1Cc2c([nH]c3ccccc23)[C@@H](c2c(F)cc(O[C@H]3CCN(CCCF)C3)cc2F)N1CC(F)(F)CO
6 | 0.8 nM |  |  | 1 µM (≈ 0.505 µg/mL) |  | 44 mL/min/kg | 17 mL/min/kg | 0.06 nM | 0.2 nM |  |  |  |  |  |  | C[C@@H]1Cc2c(ccc3[nH]ncc23)[C@@H](c2c(F)cc(OCCN3CC(CF)C3)cc2F)N1CC(C)(C)F
7 | 0.6 nM |  |  | 199 µM (≈ 102 µg/mL) |  | < 6 mL/min/kg | 7 mL/min/kg | 0.27 nM |  |  |  |  |  | 90% |  | C[C@@H]1Cc2c([nH]c3ccccc23)[C@@H](c2c(F)cc(NCCNCCCF)cc2F)N1CC(F)(F)CO
8 | 0.5 nM | 12 mL/min/kg | 3.3 | 92 µM (≈ 49.7 µg/mL) | 23 mL/min/kg | 19 mL/min/kg | 12 mL/min/kg | 0.04 nM | 0.15 nM | 0.9 ×10⁻⁶ cm/s |  |  |  |  | 27 mL/min/kg | C[C@@H]1Cc2c([nH]c3cccc(F)c23)[C@@H](c2c(F)cc(NC3CN(CCCF)C3)cc2F)N1CC(F)(F)CO
9 | > 200 nM | 12 mL/min/kg |  |  | 33 mL/min/kg |  |  |  |  |  | 95 mL/min/kg | 69% |  |  |  | CC/C(=C(\c1ccccc1)c1ccc(OCCN(C)C)cc1)c1ccccc1 [TAMOXIFEN]
10 | 0.7 nM | 7 mL/min/kg | 4.8 | 1 µM (≈ 0.504 µg/mL) | 29 mL/min/kg |  |  |  |  | 0.4 ×10⁻⁶ cm/s | 19 mL/min/kg |  | 31% |  | 19 mL/min/kg | C[C@@H]1Cc2c([nH]c3ccccc23)[C@@H](c2c(F)cc(OC3CN(CCCF)C3)cc2F)N1CC(C)(C)F
11 | 0.8 nM |  |  | 42 µM (≈ 22.7 µg/mL) |  | 25 mL/min/kg | 12 mL/min/kg | 0.02 nM | 0.09 nM |  |  |  |  |  |  | C[C@@H]1Cc2c([nH]c3ccccc23)[C@@H](c2c(F)cc(NC3CN(CCC(F)F)C3)cc2F)N1CC(F)(F)CO
12 | 0.6 nM |  |  | 163 µM (≈ 85 µg/mL) |  | 10 mL/min/kg | 9 mL/min/kg | 0.03 nM | 0.08 nM |  |  |  |  |  |  | C[C@@H]1Cc2c([nH]c3ccccc23)[C@@H](c2c(F)cc(OC3CN(CCCO)C3)cc2F)N1CC(F)(F)CO
13 | 0.3 nM |  |  | 80 µM (≈ 42.9 µg/mL) |  | 26 mL/min/kg | 11 mL/min/kg | 0.16 nM |  |  |  |  |  |  |  | C[C@@H]1Cc2c([nH]c3ccccc23)[C@@H](c2c(F)cc(N[C@H]3CCN(CCCF)C3)cc2F)N1CC(F)(F)CO

Row | SMILES | EC50 [1] | CLint scaled at 1 h [2] | logD [3] | solubility kinetic [4] | CLint scaled at 1 h [5] | CLint scaled at 1 h, 1 µM [6] | CLint scaled at 1 h, 1 µM [7] | DC50 [8] | IC50 [9] | Papp A→B at 3 h, 10 µM [10] | clearance [11] | bioavailability [12] | bioavailability [13] | Emax [14] | clearance [15]
14 | CC/C(=C(\c1ccc(O)cc1)c1ccc(OCCN(C)C)cc1)c1ccccc1 [AFIMOXIFENE] | 3.5 nM | 14 mL/min/kg | 4 | 31 µM (≈ 12 µg/mL) | 32 mL/min/kg |  |  |  |  |  |  |  |  |  | 
